# In US7566550B2, “Screening method for developing drugs against pathogenic microbes having two-component system” (priority 2002, dated 2009):
# Several values for one entry are separate records, joined by “and”; a condition that tells them apart may be missing. Identical values can stand only once. Entries after “also recorded” stand apart in the source; their conditions may differ.
# Legend:
# [1] = tested on: tubercle bacilli; conditions: replicating, static and multidrug-resistant bacilli; cited from earlier work
# [2] = biological target: T1, Rv2027194 (Mycobacterium tuberculosis, UniProt P9WGK1); assay: High-throughput (96-well filter retention) autophosphorylation of sensor kinase Rv2027194 with [γ32P]ATP; format: biochemical, M. tuberculosis; conditions: high-throughput format, concentration course 2.5 mM to 1 μM; read-out: concentration required to cause 50% inhibition (IC50) of the autophosphorylation of Rv2027194
# T1 sequence (P9WGK1 380-573 limits assumed): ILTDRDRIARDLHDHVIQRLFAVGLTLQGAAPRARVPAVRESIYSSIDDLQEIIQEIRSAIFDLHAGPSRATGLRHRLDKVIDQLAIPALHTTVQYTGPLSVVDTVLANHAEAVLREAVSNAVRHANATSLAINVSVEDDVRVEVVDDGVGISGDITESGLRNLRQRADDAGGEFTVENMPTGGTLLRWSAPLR
# [3] = biological target: T2, DevS201 (Mycobacterium tuberculosis, UniProt P9WGK3); assay: SDS-PAGE/autoradiography assay of DevS201 autophosphorylation in presence of candidate compounds; format: biochemical, M. tuberculosis; conditions: 1 mM compound, 12 μM DevS201, SDS-PAGE format
# T2 sequence (P9WGK3 378-578 limits assumed): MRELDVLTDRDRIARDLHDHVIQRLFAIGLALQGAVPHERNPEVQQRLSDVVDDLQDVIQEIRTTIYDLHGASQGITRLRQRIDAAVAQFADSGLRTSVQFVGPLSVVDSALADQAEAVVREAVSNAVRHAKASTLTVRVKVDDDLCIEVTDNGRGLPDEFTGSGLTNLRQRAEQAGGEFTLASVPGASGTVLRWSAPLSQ
# Method: FIG. 16. Inhibition of autophosphorylation of sensor kinase DevS201 by various candidate compounds. Autoradiogram of SDS-PAGE of autophosphorylation reaction products. Lane 1, levamisole HCl; lane 2, folic acid; lane 3, gly-gly-glycine; lane 4, EGTA; lane 5, bromo-phenol blue; lane 6, HABA; lane 7, ethidium bromide; lane 8, anti-DevS antibody (1 μl); lane 9, no compound. Briefly, all the mentioned compounds (1 mM final concentration) were added to 12 μM of DevS201 in reaction buffer without ATP and incubated at RT for 30 minutes after which the reaction was initiated by addition of [γ^32P]ATP and cold ATP. The reaction contents were then incubated at 25° C. for 60 minutes and were subsequently analyzed on gel as mentioned earlier.
# Utilizing this knowledge a few compounds were tested for their inhibitory activity on the autophosphorylation potential of DevS sensor kinase. These included levamisole, folic acid, glycyl glycyl glycine, ethidium bromide, bromo phenol blue, 2-4-hydroxyphenylazo benzoic acid (HABA), 2-mercapto benzimidazole etc. […]
# To elaborate, 12 μM of DevS201 was incubated with the aforementioned compounds in the phosphorylation reaction buffer (50 mM Tris.HCl, pH 8.0, 50 mM KCl and 25 mM MgCl2) for 30 minutes at room temperature. […] Subsequently, the reactions were terminated and analyzed on SDS-PAGE as mentioned previously.
# [4] = biological target: T2, DevS201; assay: High-throughput (96-well filter retention) autophosphorylation of sensor kinase DevS201 with [γ32P]ATP; format: biochemical, M. tuberculosis; conditions: for IC50: high-throughput format, concentration course 2.5 mM to 1 μM, read-out: concentration required to cause 50% inhibition (IC50) of the autophosphorylation of DevS201
# [5] = biological target: T2, DevS201; assay: Coomassie-stained SDS-PAGE check for aggregation of sensor kinase DevS201; set-up: species or system M. tuberculosis; conditions: coomassie-stained SDS-PAGE of autophosphorylation reaction
# [6] = biological target: T1, Rv2027194; assay: Coomassie-stained SDS-PAGE check for aggregation of sensor kinase Rv2027194; set-up: species or system M. tuberculosis; conditions: coomassie-stained SDS-PAGE of autophosphorylation reaction
SMILES,activity against tubercle bacilli [1],IC50 [2],inhibition of the autophosphorylation of DevS201 (autoradiogram) [3],IC50 [4],aggregation of sensor kinase DevS201 in presence of compound [5],aggregation of sensor kinase Rv2027194 in presence of compound [6],"inhibition at 2500 µM ([4]; in the presence of 2.5 mM, read-out: inhibition of DevS) [%]"
O=[N+]([O-])c1cn2c(n1)OC[C@@H](OCc1ccc(OC(F)(F)F)cc1)C2 [PA-824],activity against both replicating and static tubercle bacilli as well as multidrug-resistant bacilli,,,,,,
"O=S1(=O)OC(c2cc(Br)c(O)c(Br)c2)(c2cc(Br)c(O)c(Br)c2)c2ccccc21 [BPB, 3′,3″,5′,5″-Tetrabromophenol tetrabromosulfonapthalene]",,1500 to 1700 µM,visible inhibition,1500 to 1700 µM,no aggregation; also recorded: did not cause aggregation,no aggregation; also recorded: did not cause aggregation,
"CC[n+]1c(-c2ccccc2)c2cc(N)ccc2c2ccc(N)cc21.[Br-] [EtBr, Phenanthridinium, 3,8-diamino-5-ethyl-6-phenyl-, bromide]",,600 to 700 µM and 500 to 1000 µM,visible inhibition,> 2500 µM,no aggregation; also recorded: did not cause aggregation,no aggregation; also recorded: did not cause aggregation,35
"Sc1nc2ccccc2[nH]1 [2-MBI, 2-mercapto benzimidazole]",,400 to 600 µM and 300 to 800 µM,,400 to 600 µM and 300 to 800 µM,absence of aggregate,absence of aggregate,
